Test results from US20250327770A1, “Protein-Derived Peptide Multiplexes for Biomimetic Detection of VOC Profiles” (University of Washington, priority 2022, published 2025).
Entries after “also recorded” stand apart in the source; their conditions may differ.

Experiments:
[1] = Peptide-sensitized CNT-FET sensor response to ethyl butyrate; conditions: gate voltage −1 V
Procedure: Sensors were placed in a box chamber that allowed gas flow into and out of the enclosure while allowing micromanipulator probes to be positioned on the sensor chip contact pads. Gas flow impinged directly above the sensor chip with a continuous flow rate of 50-60 SCCM as controlled by a flowmeter (Matheson, model FM-1050, Montgomeryville, PA, USA).
After placing the sensor chip into the gas chamber, a nitrogen purge of 2-3 minutes at 4 to 5 PSI in the gas line was performed in order to flush out ambient air trapped within the box enclosure. Transfer curve measurements were performed to determine sensor characteristics. The chip was then equilibrated in humidified N2 (“wet N2”) for 30-60 min by flowing in nitrogen gas that has passed through a gas bubbler filled with water. Sensor measurements were taken at this point to establish sensor baseline signal.
For peptide sensitization of the CNT sensing channel, the chip was removed from the gas chamber and dropcasted with 1.5 μL 100 μM peptide diluted in di-H2O. Peptide solution was pipetted directly onto the CNT sensing regions of the multiplexed chip and incubated for 60 minutes in a humidified environment to prevent evaporation. Devices were then spin dried by centrifugal force at 2,000 g. Sensor measurements were taken again after replacing the chip back into the gas chamber, purging with N2, and equilibrating in wet N2 for 30-60 min. Finally, the peptide-functionalized chip was exposed to humidified ethyl butyrate for 60-90 min before sensor measurements were taken.
Transfer curves were generated for each of the following experimental conditions: 1) Bare CNT sensors (i.e., non-functionalized) under non-humidified N2 gas exposure; 2) non-functionalized sensors under humidified N2 gas exposure; 3) peptide-functionalized sensors under humidified N2 gas exposure; and 4) peptide-functionalized sensors exposed to ethyl butyrate in humidified N2 carrier gas. Signal response was based on normalized source-drain current values obtained from the reverse sweep of the transfer curve at a gate potential of −1 V (Vg=−1 V), which was determined to be within the subthreshold voltage region for ethyl butyrate-exposed, peptide-functionalized sensors. […] Signal responses were normalized to their corresponding width-to-length CNT sensing channel dimensions. Mean signal response for each condition was calculated from a total of 9 to 13 technical replicates measured across two independent experiments (N=2).
Two VOC and C-binding peptides were used in order to functionalize CNT-FET devices and test their sensitivity to ethyl butyrate:MmedPep1-GrBP and BhorPep1-GrBP, which were predicted to bind to ethyl butyrate and a range of aldehydes and alkanes, respectively. […] However, the effect was reversed under ethyl butyrate exposure for CNT channels functionalized with MmedPep1-GrBP (FIG. 7B). Specifically, upon exposure to 378 mM ethyl butyrate solution (5% v/v in H2O), MmedPep1-GrBP-sensitized CNT-FET sensors measured 1.21±0.43 μA of current, compared to 0.20±0.9 μA for the aldehyde-sensitive BhorPep1-GrBP (p<0.001), as shown in FIG. 7C.

[2] = SPR adsorption of peptide onto carbon substrate; format: binding
Procedure: (§1) SPR (GE Healthcare, Biacore T200) was performed to validate specific adsorption of peptides onto a carbon substrate. Bare gold and carbon- and poly-L-lysine-functionalized substrates were used. Substrate fabrication used e-beam evaporation (CHA Industries, Solution Process Development System) of titanium (3-nm thick layer) then gold (47-nm thick layer) onto 1-cm^2 optical quality glass. A 20-nm thick carbon layer was sputtered (Kurt J. Lesker Company, Lab 18 Sputter System) onto the fabricated gold substrates at a rate of 10 Å per minute, and poly-L-lysine coatings were drop-cast incubated with 0.1% v/v poly-L-lysine for 30 minutes and rinsed with di-H2O, then air dried. A single-cycle kinetics curve was generated by sequential injection of MmedPep1-GBP peptide at 2-fold increasing concentrations up to 500 nM in buffer (100 mM KCl, 10 mM K+ phosphate). An injection flow rate of 30 μL/min and a temperature of 25° C. were used. Response values were plotted and fitted to a Langmuir isotherm curve by minimizing the sum of square differences between the dataset and the isotherm model.

[3] = SPR adsorption of peptide onto poly-L-lysine substrate; format: binding; conditions: 500 nM peptide concentration
Procedure: as §1

[4] = SPR adsorption of peptide onto bare gold; format: binding; conditions: 500 nM peptide concentration
Procedure: as §1

QCM VOC binding, nonanal = conditions: wet N2 gas stream
Procedure: (§2) VOC binding validation by QCM utilized chimeric molecular constructs tethered to a substrate in a VOC-doped gas stream. Gold QCM substrates (Qsense, Phoenix, AZ, USA) were coated with 10 nm thick carbon film by evaporation (SPI, West Chester, PA, USA). 10 μL of 1 μM aqueous peptide was deposited and incubated for 1 hour at room temperature, and then the sample was dried in a nitrogen gas stream. A KSV model Z500 QCM (Qsense, Phoenix, AZ, USA) was used to measure VOC binding to bare carbon (control), and peptide-coated substrates. Humidified nitrogen was measured as the baseline, then VOC was introduced by bubbling nitrogen through the VOC/deionized water mixture. The difference in resonant frequency between wet nitrogen and VOC mixture was reported, in which lower frequency indicated an increase in mass on the substrate due to VOC molecules binding to the surface.
(§3) Each of the six synthesized peptides was then tested against eight VOCs. The VOCs were chosen to include the targeted VOCs for all synthesized chimeric molecular constructs, plus ethanol as a common non-target. […] VOC adsorption caused damping of the QCM sensor—therefore, a higher affinity surface would produce a greater reduction in resonant frequency upon exposure to the gas stream. The concentration of the target VOC for each peptide was 20 μM, 10× lower than non-targets at 200 μM.

QCM VOC binding, octanal = conditions: wet N2 gas stream
Procedure: as §2, §3

[5] = QCM VOC binding, ethyl butyrate; conditions: wet N2 gas stream
Procedure: as §2, §3

QCM VOC binding, ethanol = conditions: wet N2 gas stream
Procedure: as §2, §3

[6] = 378 mM ethyl butyrate solution (5% v/v in H2O), Vsd=−5 V

VGARNGGGYSSY [MmedPep1-GrBP, target ethyl butyrate]
source-drain current upon ethyl butyrate exposure [1, 6]: 1.21±0.43 μA
source-drain current upon ethyl butyrate exposure ([1]; Vds=−3 V): 0.542±0.721 μA
CNT-FET signal response to ethyl butyrate exposure (in words) [1]: robust signal response
SPR signal ([2]; 500 nM peptide concentration, carbon-coated gold surface): 158.4±44.1 RU
substrate preference of adsorption (carbon vs gold, poly-L-lysine) ([2]; SPR): specific preference for the carbon substrate; also recorded: specific absorption
SPR signal [3]: 6.5±2.9 RU
SPR signal [4]: 18.4±1.7 RU

SHFVGGGYSSY [HcunPep1-GrBP, chimeric construct from HcunPBP3; target nonanal]
nonanal affinity (QCM) (QCM VOC binding, nonanal): notable

GIVLLATYEKIISIYFIFFGGGYSSY [BhorPep1-GrBP, chimeric construct from BhorOBPm2; targets aldehydes and alkanes]
source-drain current upon ethyl butyrate exposure [1, 6]: 0.20±0.9 μA
source-drain current upon ethyl butyrate exposure ([1]; Vds=−3 V): 0.038±0.020 μA
CNT-FET signal response to ethyl butyrate exposure (in words) [1]: respond weakly
octanal affinity (QCM) (QCM VOC binding, octanal): notable

VGGGAGRGNGGGYSSY [MmedPep1s-GrBP, glycine spacer variant of MmedPep1-GrBP; target ethyl butyrate]
ethyl butyrate binding preference (QCM) [5]: strongly selective
affinity for ethanol (QCM) (QCM VOC binding, ethanol): reduced affinity
